Key:
Src = Src (Homo sapiens, UniProt P12931); experiment: cell-based
Description: The medium was changed to a serum-free medium and the cells were further incubated for one day. […] The culture medium was removed 5 min later and SDS sample buffer was added to give a cell lysate (200 μL).

[1] = test system: HER2 high expression human breast cancer cells BT-474; settings: BT-474, 1 μmol/L, 5 days
Description: After the culture, the culture medium was removed and a cell suspension was prepared by a trypsin treatment and the cells were fixed with 70% ethanol. The DNA of the cells was stained with propidium iodide and the DNA amount was measured by a flow cytometer. The cells with a decreased amount of DNA are apoptotic (cell death) cells.

HER2 [2] = molecular target: T1, HER2 (Homo sapiens, UniProt P04626); experiment: in vivo
T1 sequence (P04626 23-1255): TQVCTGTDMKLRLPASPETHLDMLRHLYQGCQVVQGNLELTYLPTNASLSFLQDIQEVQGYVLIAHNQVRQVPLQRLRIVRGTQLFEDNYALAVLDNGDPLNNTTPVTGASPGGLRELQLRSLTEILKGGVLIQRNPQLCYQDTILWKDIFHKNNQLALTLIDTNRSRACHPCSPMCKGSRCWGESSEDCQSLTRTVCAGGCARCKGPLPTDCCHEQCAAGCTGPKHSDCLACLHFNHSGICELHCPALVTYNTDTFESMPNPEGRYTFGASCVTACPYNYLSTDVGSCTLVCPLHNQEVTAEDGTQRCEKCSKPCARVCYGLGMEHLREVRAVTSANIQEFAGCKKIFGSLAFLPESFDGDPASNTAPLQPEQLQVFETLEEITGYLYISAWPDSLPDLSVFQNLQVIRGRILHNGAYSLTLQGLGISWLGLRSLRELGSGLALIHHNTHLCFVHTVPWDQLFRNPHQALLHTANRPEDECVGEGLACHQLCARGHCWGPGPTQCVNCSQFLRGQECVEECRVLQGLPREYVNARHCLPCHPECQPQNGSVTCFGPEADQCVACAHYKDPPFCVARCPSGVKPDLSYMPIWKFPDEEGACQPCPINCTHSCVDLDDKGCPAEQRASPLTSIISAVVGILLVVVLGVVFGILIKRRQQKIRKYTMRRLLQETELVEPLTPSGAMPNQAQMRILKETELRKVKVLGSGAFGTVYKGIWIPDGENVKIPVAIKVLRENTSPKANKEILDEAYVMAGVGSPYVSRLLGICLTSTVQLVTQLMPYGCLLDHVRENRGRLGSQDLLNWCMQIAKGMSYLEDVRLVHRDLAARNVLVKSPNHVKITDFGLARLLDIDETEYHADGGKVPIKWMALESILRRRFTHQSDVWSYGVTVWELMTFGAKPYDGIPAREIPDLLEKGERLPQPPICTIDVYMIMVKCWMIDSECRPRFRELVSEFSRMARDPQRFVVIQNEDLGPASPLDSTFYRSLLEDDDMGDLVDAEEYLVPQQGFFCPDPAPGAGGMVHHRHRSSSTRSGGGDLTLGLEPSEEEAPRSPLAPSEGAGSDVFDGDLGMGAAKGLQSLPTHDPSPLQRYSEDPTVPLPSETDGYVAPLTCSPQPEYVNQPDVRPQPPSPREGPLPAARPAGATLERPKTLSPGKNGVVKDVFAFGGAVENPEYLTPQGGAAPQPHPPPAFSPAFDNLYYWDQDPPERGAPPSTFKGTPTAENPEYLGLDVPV
Description: Four hours later, the tumor was sampled and a tumor homogenate was prepared.

[3] = test system: HER2 high expression human breast cancer cell BT-474; experiment: Anti-tumor effect, combined use, BT-474 cancer-bearing nude mice; type: in vivo; settings: BT-474 nude mice, 5 cases out of 5, same regimens as T/C
Description: An increase in the tumor volume from that before administration to that on the next day of the final administration was compared to that of the control group and anti-tumor effect was studied. In addition, the tumor volume was calculated from the following equation:
Formula: Tumor volume=longer diameter×shorter diameter×shorter diameter×(½)
The ratio of the value obtained by subtracting the tumor volume on the day of administration initiation from the tumor volume on the next day of the completion of the administration in the control group, and the value obtained by subtracting the tumor volume on the day of administration initiation from the tumor volume on the next day of the completion of the administration was determined as a growth rate (T/C (%)).

786-O = experiment: cells; settings: Homo sapiens, 786-0, read-out: Compound B4 IC50 (μmol/L), 786-O
Description: (§1) 1) Cell growth inhibitory action; Each cell line was sown in a 24-well multi-well plate (5×10^4 to 2×10^5 cells/well) and cultured overnight in a carbon dioxide gas incubator (5% CO2, 37° C. ).

A549 = experiment: cells; settings: Homo sapiens, A549, read-out: Compound B4 IC50 (μmol/L), A549
Description: as §1

ACHN = experiment: cells; settings: Homo sapiens, read-out: Compound B4 IC50 (μmol/L), ACHN
Description: as §1

BT-474 = experiment: cells; settings: Homo sapiens, BT-474, read-out: Compound B4 IC50 (μmol/L), BT-474
Description: as §1

BxPC-3 = experiment: cells; settings: Homo sapiens, BXPC-3, read-out: Compound B4 IC50 (μmol/L), BxPC-3
Description: as §1

ES-2 = experiment: cells; settings: Homo sapiens, ES-2, read-out: Compound B4 IC50 (μmol/L), ES-2
Description: as §1

G401 = experiment: cells; settings: Homo sapiens, G-401, read-out: Compound B4 IC50 (μmol/L), G401
Description: as §1

HCT-116 = experiment: cells; settings: Homo sapiens, HCT-116, read-out: Compound B4 IC50 (μmol/L), HCT-116
Description: as §1

MDA-MB-231 [4] = experiment: cells; settings: Homo sapiens, MDA-MB-231, read-out: Compound B4 IC50 (μmol/L), MDA-MB-231
Description: as §1

MIA-PaCa-2 = experiment: cells; settings: Homo sapiens, MIA PaCa-2, read-out: Compound B4 IC50 (μmol/L), MIA-PaCa-2
Description: as §1

Ma-1 = experiment: cells; settings: read-out: Compound B4 IC50 (μmol/L), Ma-1
Description: as §1

NIH: OV-CAR-3 = experiment: cells; settings: Homo sapiens, OVCAR-3, read-out: Compound B4 IC50 (μmol/L), NIH: OV-CAR-3
Description: as §1

PA-1 = experiment: cells; settings: Homo sapiens, PA-1, read-out: Compound B4 IC50 (μmol/L), PA-1
Description: as §1

SW480 = experiment: cells; settings: Homo sapiens, SW480, read-out: Compound B4 IC50 (μmol/L), SW480
Description: as §1

[5] = test system: HER2 high expression human breast cancer cells BT-474; settings: HER2 score 3+, dose 20 mg/kg/day orally for 14 days
Description: Immediately after transplantation and day 7 after the transplantation, estradiol dipropionate (5 mg/kg solution, 50 μL) was intramuscularly administered to the hind leg with the aim of enhancing the survival rate of the tumor. HER2 expression human non-parvicellular lung cancer A549 cells were suspended in Matrigel solution and 5,000,000 cells were subcutaneously transplanted into the chest of female BALB/c nude mouse (6 weeks of age). HER2 expression human kidney cancer ACHN cells (2,000,000 cells) were subcutaneously transplanted into the chest of nude mouse. […]
(§2) An increase in the tumor volume from that before administration to that on the next day of the final administration was compared to that of the control group and an anti-tumor effect was studied. In addition, the tumor volume was calculated from the following equation: […]
(§3) A ratio of the value obtained by subtracting a tumor volume on the day of the administration initiation from the tumor volume on the next day of the completion of the administration in the control group, and the value obtained by subtracting the tumor volume on the day of the administration initiation from the tumor volume on the next day of the completion of the administration was determined as a growth rate (T/C (%)).

MDA-MB-231 [6] = settings: breast, HER2 score 0, dose 20 mg/kg/day orally for 14 days
Description: as §2, §3

[7] = test system: HER2 expression cells (Ma-46); settings: 3 days, cell count
Description: (§4) 1) Cell growth inhibitory action; Each cell line was sown in a 24-well multi-well plate (5×10^4 cells/well) and cultured overnight in a carbon dioxide gas incubator (5% CO2, 37° C. ).

[8] = test system: HER2 non-expression cells (Ma-1); settings: 3 days, cell count
Description: as §4

[9] = test system: HER2/EGF-R co-expression cells (A549); settings: 3 days, cell count
Description: as §4

HER2 [10] = molecular target: T1, HER2; experiment: cell-based

Src, sequence (P12931 2-536 limits assumed): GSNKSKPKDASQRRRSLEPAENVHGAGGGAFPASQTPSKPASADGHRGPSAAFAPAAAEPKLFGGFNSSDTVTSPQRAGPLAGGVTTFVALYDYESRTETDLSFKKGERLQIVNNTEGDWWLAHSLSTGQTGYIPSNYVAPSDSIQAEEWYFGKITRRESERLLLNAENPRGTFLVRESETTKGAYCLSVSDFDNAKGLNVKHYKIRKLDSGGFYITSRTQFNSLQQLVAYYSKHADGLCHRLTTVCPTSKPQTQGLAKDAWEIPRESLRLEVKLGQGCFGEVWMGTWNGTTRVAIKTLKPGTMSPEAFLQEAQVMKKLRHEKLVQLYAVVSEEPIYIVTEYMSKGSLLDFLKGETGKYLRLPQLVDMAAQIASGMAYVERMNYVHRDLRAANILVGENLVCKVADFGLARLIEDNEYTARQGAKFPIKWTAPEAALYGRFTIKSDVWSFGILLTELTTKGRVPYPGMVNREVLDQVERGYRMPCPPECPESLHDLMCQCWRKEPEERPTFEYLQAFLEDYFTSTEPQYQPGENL

FC(F)(F)c1ccc(/C=C/c2nc(COc3ccc(CCCCn4ccnn4)cc3)co2)cc1 [Compound B4, 1-(4-{4-[(2-{(E)-2-[4-(trifluoromethyl)phenyl]ethenyl}-1,3-oxazol-4-yl)methoxy]phenyl}butyl)-1H-1,2,3-triazole]
IC50 (Src): > 25000 nM | cell death induction [1]: induced cell death | inhibition at 20 mg/kg (HER2 [2]; BT-474, mouse, po, read-out: intra-tumor HER2 phosphorylation, % inhibition): 87% | intra-tumor HER2 phosphorylation (per tumor weight), % of the control group (HER2 [2]; BT-474 nude mice, 20 mg/kg/day orally 14 days then 10 mg/kg, tumor sampled four hours later): 13% | reduction of tumor volume [3]: 13-30% | IC50 (786-O): > 25 µmol/L | IC50 (A549): 0.008 µmol/L | IC50 (ACHN): 0.14 µmol/L | IC50 (BT-474): 0.05 µmol/L | IC50 (BxPC-3): > 25 µmol/L | IC50 (ES-2): 12 µmol/L | IC50 (G401): < 0.05 µmol/L | IC50 (HCT-116): < 0.05 µmol/L | IC50 (MDA-MB-231 [4]): > 25 µmol/L | IC50 (MIA-PaCa-2): 0.02 µmol/L | IC50 (Ma-1): > 25 µmol/L | IC50 (NIH: OV-CAR-3): 0.06 µmol/L | IC50 (PA-1): < 0.05 µmol/L | IC50 (SW480): > 25 µmol/L | T/C (%), BT-474 [5]: −18% | T/C (%), MDA-MB-231 (MDA-MB-231 [6]): 87% | cell growth inhibitory action on Ma-46 [7]: strong cell growth inhibitory action | cell growth inhibitory action on Ma-1 [8]: did not show a cell growth inhibitory action | cell growth inhibitory action on A549 [9]: strong cell growth inhibitory action | IC50 (HER2 [10]): 4 nM
